pIC50: −log10 of the molar value.
How the values were obtained:
Rat Carotid Artery = test: Suppressing thickening of intima after trauma to rat carotid artery endothelium by balloon catheter; assay type: in vivo, Wistar rat; conditions: for thickening of the neointima of the carotid artery (in words) / Suppression rate (intima thickening): 3.2 μg/rat/hr s.c.; for Intima (area) / Media (area) / Intima/Media: 3.2 μg/rat/hr s.c. miniosmotic pump, day 14, average ± standard error; for Intima (area): 3 days before to 11 days after surgery; for Intima (area) / Intima/Media: * p < 0.05 vs control; for Suppression rate (intima thickening): (1-T/C)×100 of Intima/Media
Protocol: The test was performed in the following manner in accordance with the method of Clowes et al. (Lab. Invest., 49, 206, 1983). Male Wistar rats of a body weight of 300 to 350 g were used. The neck of each rat was opened under anesthesia by sodium pentobarbitol, then a balloon catheter (Fogarty, 2F) was inserted from the right external carotid artery until the starting portion of the common carotid artery. The balloon was expanded by saline to an extent causing a light resistance, then the catheter was pulled out in that state up to the carotid artery to give trauma to the intima. This procedure was repeated three times, then the catheter was withdrawn and the external carotid artery was ligated. After 14 days, the chest was opened under anesthesia by diethyl ether, refluxing and immobilization were performed from the aorti arch by a Karnoa solution (methanol:chloroform:acetic acid=6:3:1), then the right common carotid artery was excised and immobilized by neutral formalin solution. The immobilized carotid artery was dyed by Elastica van Gieson dye, then the areas of the media and thickened portion of the intima were measured by an image resolution device (LUZEX2D).
(§1) The test compound began to be administered subcutaneously at a rate of 3.2 μg/rat/hr using a miniosmotic pump buried in the back of the rat from three days before the surgery and was continued until 11 days after the surgery. The activity of the test compound in suppressing intima thickening was found from the following formula.

Rabbit Carotid Artery = test: Suppressing thickening of intima after trauma to rabbit carotid artery endothelium by balloon catheter; assay type: in vivo, New Zealand white rabbit
Protocol: The test was performed in the following manner in accordance with the method of Clowes et al. (Lab. Invest., 49, 206, 1983). Use was made of New Zealand white rabbits (male) of approximately 4 kg body weight. The neck portion of each rabbit was opened under anesthesia by sodium pentobarbitol, then a balloon catheter (Fogarty, 3F) was inserted from the right external carotid artery until the starting portion of the common carotid artery. The balloon was expanded by saline to an extent causing a light resistance, then the catheter was pulled out in that state up to the carotid artery to give trauma to the intima. This procedure was performed once, then the catheter was withdrawn and the external carotid artery was ligated. After 10 days, the chest was opened under anesthesia by pentobarbitol and the right common carotid artery was removed and immobilized by a neutral formalin solution. The immobilized carotid artery was dyed by Elastica van Gieson dye, then the areas of the media and intima were measured by an image resolution device (LUZEX2D).
as §1, with “of 32 μg/rabbit/hr” for “of 3.2 μg/rat/hr”, “the rabbit” for “the rat”, “until 10” for “until 11”, “in inhibiting” for “in suppressing”
Intima thickening suppression rate (%)=(1-T/C)×100

human platelet = test: Human platelet aggregation inhibiting activity; assay type: cell-based; conditions: 5 min, human plasma, adenosine 2-phosphate induced, 5 minutes at 37° C.
Protocol: (§2) Wistar rats (males, approximately 400 g) were made to fast for one day, the entire blood was removed from the chest artery under anesthesia by ether, then a 1/10 volume of 3.8% aqueous solution of sodium citrate was added and immediately mixed in. The solution was centrifuged at 1000 rpm for 10 minutes, then the upper layer was used as the platelet rich plasma. The lower layer was centrifuged at 3000 rpm for 10 minutes and the upper layer of that was used as the platelet poor plasma. The platelet rich plasma was diluted by the platelet poor plasma to give a number of platelets of 3.5×10^8 /mm^3. This was used for the measurement. Note that the measurement of the platelets was performed using an automatic blood cell counter MEK-4500 (Nihon Koden). The measurement of the platelet aggregation was performed by measuring the turbidity using an NBS HEMA TRACER 801 (M.C. Medical). 90 μl of the platelet solution was inserted in a cuvette, then 5 μl each of the test compounds was added to give the target final concentration. The result was heated for one minute at 37° C., then 5 μl of a 100 μM aqueous solution of adenosine 2-phosphate (M.C. Medical) was added to induce platelet aggregation. The aggregation inhibiting activity was found from the following formula.
(§3) Aggregation inhibiting rate (%)={1-(maximum change of turbidity at time of
(§4) addition of drug)/(maximum change of turbidity at time of non-addition of
(§5) Further, the concentration of the compound giving 50% inhibition was used as the IC50.
50 ml portions of venous blood supplied from healthy human volunteers were used to prepare the platelet rich plasma and the platelet poor plasma in the same way as above. The measurement of the platelet aggregation was performed in the same way as above. However, unlike with the measurement of the rat platelet aggregation inhibiting activity, the test compound was added to the platelet poor plasma in advance and warmed for 5 minutes at 37° C., then the platelet rich plasma was added to give a number of platelets of 3.5×10^8 /mm^3. At the same time, 5 μl of 100 μM an aqueous solution of adenosine 2-phosphate (M.C. Medical) was added to induce platelet aggregation. The aggregation inhibiting activity was calculated in the same way as mentioned above.

[1] = test system: cell migration induced by MCP-1 in human blood monocytes; test: Activity for inhibiting cell migration induced by MCP-1 (human blood monocytes); assay type: cell-based; conditions: Monocyte, 2 h, 20 ng/ml recombinant human MCP-1, 37° C., two hours
rat platelet = test: Rat platelet aggregation inhibiting activity; assay type: cell-based; conditions: rat platelet rich plasma; adenosine 2-phosphate induced; 37° C., one minute
Protocol: as §2, §3, §4, §5

[2] = 32 μg/rabbit/hr s.c. miniosmotic pump, day 10, average ± standard error

CCCC[C@@H](C)C[C@H](O)/C=C/[C@@H]1C(SCCCCCC(=O)OC)=C(OC(=O)CCC)C[C@H]1O [Example 2, methyl(11R,12S,13E,15S,17R)-9-butyryloxy-11,15-dihydroxy-17,20-dimethyl-7-thiaprosta-8,13-dienoate]
thickening of the neointima of the carotid artery (in words) (Rat Carotid Artery): suppresses the thickening of the neointima of the carotid artery | Intima (area) (Rat Carotid Artery): 0.155 mm^2 | Media (area) (Rat Carotid Artery): 0.197 mm^2 | Intima/Media (Rat Carotid Artery): 0.758 | Suppression rate (intima thickening) (Rat Carotid Artery): 45.8% | Intima (area) (Rabbit Carotid Artery; 32 μg/rabbit/hr s.c. miniosmotic pump, 3 days before to 10 days after surgery, day 10, average ± standard error): 0.055 mm^2 | Intima/Media (Rabbit Carotid Artery; [2]): 0.152 | Media (area) (Rabbit Carotid Artery; [2]): 0.367 mm^2 | Suppression rate (intima thickening) (Rabbit Carotid Artery; (1-T/C)×100 of Intima/Media, 32 μg/rabbit/hr s.c.): 29.9%

CCCC(=O)OC1=C(SCCCCCC(=O)OC)[C@@H](/C=C/C(O)Cc2ccccc2)[C@H](O)C1 (some centres unmarked) [drawing 184]
pIC50 (human platelet): 7.30

CCCC(=O)OC1=C(SCCCCCC(=O)OC)[C@@H](/C=C/C(O)C(C)c2ccccc2)[C@H](O)C1 (some centres unmarked) [drawing 186]
pIC50 (human platelet): 6.98

CCCCC(C)CC(O)/C=C/[C@@H]1C(SCCCCCC(=O)OC)=C(OC(=O)CCC)C[C@H]1O (some centres unmarked)
pIC50 [1]: 9.00

CCCC(=O)OC1=C(SCCCCCC(=O)OC)[C@@H](/C=C/C(O)[C@H](C)c2ccccc2)[C@H](O)C1 (some centres unmarked) [drawing 185]
pIC50 (human platelet): 7.31

CCCC(=O)OC1=C(SCCCCCC(=O)OC)[C@@H](/C=C/[C@@H](O)C2CCCCC2)[C@H](O)C1 [drawing 182]
pIC50 (human platelet): 6.92

CCCCC[C@H](O)/C=C/[C@@H]1C(SCCCCCC(=O)OC)=C(OC(=O)CCC)C[C@H]1O
pIC50 (rat platelet): 6.20

CCCCC(C)C[C@H](O)/C=C/[C@@H]1C(SCCCCCC(=O)OC)=C(OC(=O)CCC)C[C@H]1O (some centres unmarked) [drawing 183]
pIC50 (human platelet): 7.24

CCCCC(C)C[C@H](O)/C=C/[C@@H]1C(SCCCOCC(=O)OC)=C(OC(=O)CCC)C[C@H]1O (some centres unmarked) [drawing 187]
pIC50 (human platelet): 7.23

CCCCC(C)C[C@H](O)/C=C/[C@@H]1C(SCCCCCC(=O)OC)=C(OC(=O)C(C)C)C[C@H]1O (some centres unmarked)
pIC50 (rat platelet): 6.30

CCCC(=O)OC1=C(SCCCCCC(=O)OC)[C@@H](/C=C/[C@@H](O)C2CCCCC2)[C@H](O)C1 [Example 17, methyl(11R,12S,13E,15S)-9-butyryloxy-11,15-dihydroxy-15-cyclohexyl-16,17,18,19,20-pentanor-7-thiaprosta-8,13-dienoate]
thickening of the neointima of the carotid artery (in words) (Rat Carotid Artery): suppresses the thickening of the neointima of the carotid artery | Intima (area) (Rat Carotid Artery): 0.167 mm^2 | Media (area) (Rat Carotid Artery): 0.211 mm^2 | Intima/Media (Rat Carotid Artery): 0.784 | Suppression rate (intima thickening) (Rat Carotid Artery): 37.5%
